According to patent publication US3953456A, “Carbostyril derivatives and process for preparing the same” (Otsuka Pharmaceutical Co., Ltd., priority 1972, dated 1976):
Like-named read-outs stand apart in the source and are kept apart here.

Key:
isoprenaline = test: Antagonistic activity against isoprenaline (β-blockers screening method) in anesthesized dogs: % inhibition of pulse increase and blood pressure reduction; type: in vivo, male mongrel adult dogs; settings: isoprenaline 0.3 γ/Kg after 5 minutes; for Antagonistic Activity Against Isoprenaline (% Inhibition), Blood Pressure: pressure reduction by isoprenaline alone = 100%; for Antagonistic Activity Against Isoprenaline (% Inhibition), Pulse: pulse increase by isoprenaline alone = 100%
Procedure: The antagonistic activity of the compounds of this invention against isoprenaline was determined using the β-blockers screening method (C. E. Powell, I. H. Slater : J. Pharmac., 122, 480 (1958 )).
Male mongrel adult dogs, weighing 13 to 20 Kg were anesthesized with 30 mg/Kg of body weight of pentabarbital sodium administered intravenously. Each of the test compounds was then administered to the anesthesized dog at a dosage level of 30γ or 100γ/Kg of body weight from the femoral vein and after 5 minutes isoprenaline was administered to the dog through the femoral vein at a dosage level of 0.3 γ/Kg of body weight. the blood pressure and the pulse (H.R.) were then recorded on a polygraph through a pressure transducer and a tachometer operated by the R wave of the electrocardiograph, respectively, to determine % inhibitory activity of the test compound against the pulse increase and the pressure reduction induced by isoprenaline.
*The pulse increase and the pressure reduction induced by the
administration of isoprenaline alone are referred to as 100%.

[1] = Acute toxicity in rat (LD50, 50% lethal dose); settings: in vivo, rat (Wister strain)
Procedure: Also, the acute toxicity in rat (Wister strain) was determined in a standard manner with respect to representative compounds of this invention.

Structure (SMILES) | Antagonistic Activity Against Isoprenaline (% Inhibition), Blood Pressure (isoprenaline; 100 γ/Kg from the femoral vein) | Antagonistic Activity Against Isoprenaline (% Inhibition), Pulse (isoprenaline; 100 γ/Kg from the femoral vein) | LD50 ([1]; iv, i.v., read-out: LD50 i.v.) | LD50 ([1]; po, p.o., read-out: LD50 p.o.) | Antagonistic Activity Against Isoprenaline (% Inhibition), Blood Pressure (isoprenaline; 30 γ/Kg from the femoral vein) | Antagonistic Activity Against Isoprenaline (% Inhibition), Pulse (isoprenaline; 30 γ/Kg from the femoral vein)
CC(C)NCC(O)COc1cccc2ccc(=O)[nH]c12 (centres unmarked) [8-(2-hydroxy-3-isopropylamino)propoxycarbostyril] | 66.2% | 57.4% | 178 mg/kg | 2000 mg/kg |  | 
CC(C)(C)NCC(O)COc1cccc2ccc(=O)[nH]c12 (centres unmarked) [8-(2-hydroxy-3-tert-butylamino)propoxycarbostyril] | 78.3% | 72.6% | 148 mg/kg | 1800 mg/kg |  | 
CC(C)(C)NCC(O)COc1cccc2[nH]c(=O)ccc12 (centres unmarked) [5-(2-hydroxy-3-tert-butylamino)propoxycarbostyril] |  |  | 136 mg/kg | 1800 mg/kg | 97.9% | 96.1%
CCC(C)NCC(O)COc1cccc2ccc(=O)[nH]c12 (centres unmarked) [8-(2-hydroxy-3-sec-butylamino)propoxycarbostyril] | 51.8% | 42.1% | 143 mg/kg | 1900 mg/kg |  | 
CC(C)NCC(O)COc1cccc2[nH]c(=O)ccc12 (centres unmarked) [5-(2-hydroxy-3-isopropylamino)propoxycarbostyril] |  |  | 162 mg/kg | 2000 mg/kg | 89.2% | 87.6%
